Experimental data published in the supplement of paper PMC10307832.

How the values were obtained:
Test in all cases: relative viability (nuclei count vs DMSO), 5 days (fraction); higher = more cells survive
[1] = compound: CC1=CC=C(C=C1)C(=O)CN2C3=C(CCCC3)SC2=N [Pifithrin_alpha] + Cc1cc(Nc2cc(N3CCN(C)CC3)nc(Sc3ccc(NC(=O)C4CC4)cc3)n2)n[nH]1 [Tozasertib] (partner 0.1 µM)
Summary of the method: (§1)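 Cells from lung cancer lines were seeded into 1536-well plates and, one day later, dosed by pin tool. Treatments were either a single drug or a fixed dose of an anchor drug with five library-drug doses (not always all listed) in √10 steps. After 5 days, nuclei were stained in a one-step fixation (final 0.05% Triton X-100, 1% formaldehyde, 1 ug/ml Hoechst) and counted on 4× images, and relative viability is the treated-to-vehicle nuclei ratio, as the median of duplicate plates.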

Axitinib + OSI-027 = compound: CNC(=O)c1ccccc1Sc1ccc2c(/C=C/c3ccccn3)n[nH]c2c1 [Axitinib] + COc1cccc2cc(-c3nc([C@H]4CC[C@H](C(=O)O)CC4)n4ncnc(N)c34)[nH]c12 [OSI-027] (partner 0.5 µM)
Summary of the method: as §1

Bemcentinib + Linsitinib = compound: Nc1nc(Nc2ccc3c(c2)CC[C@@H](N2CCCC2)CC3)nn1-c1cc2c(nn1)-c1ccccc1CCC2 [Bemcentinib] + C[C@]1(O)C[C@@H](c2nc(-c3ccc4ccc(-c5ccccc5)nc4c3)c3c(N)nccn32)C1 [Linsitinib] (partner 1 µM)
Summary of the method: as §1

Bemcentinib + Decitabine = compound: Nc1nc(Nc2ccc3c(c2)CC[C@@H](N2CCCC2)CC3)nn1-c1cc2c(nn1)-c1ccccc1CCC2 [Bemcentinib] + Nc1ncn([C@H]2C[C@H](O)[C@@H](CO)O2)c(=O)n1 [Decitabine] (partner 2 µM)
Summary of the method: as §1

Row | Cell Line | relative viability ([1]; first compound 1 µM) | relative viability ([1]; first compound 3.162 µM) | relative viability ([1]; first compound 10 µM) | relative viability ([1]; first compound 100 µM) | relative viability (Axitinib + OSI-027; first compound 0.005 µM) | relative viability (Axitinib + OSI-027; first compound 0.01581 µM) | relative viability (Axitinib + OSI-027; first compound 0.05 µM) | relative viability (Axitinib + OSI-027; first compound 0.1581 µM) | relative viability (Axitinib + OSI-027; first compound 0.5 µM) | relative viability (Bemcentinib + Linsitinib; first compound 0.04 µM) | relative viability (Bemcentinib + Linsitinib; first compound 0.1265 µM) | relative viability (Bemcentinib + Linsitinib; first compound 0.4 µM) | relative viability (Bemcentinib + Linsitinib; first compound 1.265 µM) | relative viability (Bemcentinib + Linsitinib; first compound 4 µM) | relative viability (Bemcentinib + Decitabine; first compound 0.04 µM) | relative viability (Bemcentinib + Decitabine; first compound 0.1265 µM) | relative viability (Bemcentinib + Decitabine; first compound 0.4 µM) | relative viability (Bemcentinib + Decitabine; first compound 1.265 µM) | relative viability (Bemcentinib + Decitabine; first compound 4 µM) | relative viability ([1]; first compound 31.62 µM)
1 | NCI-H727 | 0.505 | 0.657 | 0.52 | 0.579 | 0.785 | 0.425 | 0.54 | 0.528 | 0.699 | 0.331 | 0.286 | 0.288 | 0.3 | 0.293 | 0.832 | 0.932 | 0.807 | 0.717 | 0.891 | 
2 | NCI-H1993 | 0.586 | 0.636 | 0.573 | 0.559 | 0.549 | 0.573 | 0.582 | 0.481 | 0.484 | 0.699 | 0.735 | 0.776 | 0.773 | 0.804 | 0.541 | 0.49 | 0.627 | 0.577 | 0.68 | 0.529
3 | NCI-H1437 | 0.502 | 0.478 | 0.403 | 0.409 | 0.905 | 0.832 | 0.872 | 0.846 | 0.847 | 1.03 | 1.14 | 1.16 | 1.12 | 1.18 | 0.58 | 0.602 | 0.558 | 0.584 | 0.571 | 0.364
4 | NCI-H2023 | 0.247 | 0.177 | 0.209 | 0.167 | 0.437 | 0.446 | 0.396 | 0.337 | 0.468 | 0.689 | 0.721 | 0.821 | 0.877 | 0.678 | 0.204 | 0.264 | 0.233 | 0.282 | 0.224 | 
5 | LK-2 | 0.188 | 0.134 | 0.146 | 0.152 | 0.202 | 0.168 | 0.193 | 0.191 | 0.186 | 0.836 | 0.57 | 0.677 | 0.551 | 1.05 | 0.214 | 0.374 | 0.342 | 0.23 | 0.313 | 
6 | HOP-62 | 0.385 | 0.584 | 0.355 | 0.344 | 0.825 | 0.865 | 0.814 | 0.872 | 0.923 | 1.12 | 0.986 |  | 1.08 | 0.99 | 0.25 | 0.198 | 0.255 | 0.207 | 0.216 | 0.358
7 | NCI-H441 | 0.483 | 0.652 | 0.401 | 0.451 | 0.736 | 0.604 | 0.681 | 0.541 | 0.748 | 0.525 | 0.702 | 0.76 | 0.496 | 0.581 | 0.208 | 0.276 | 0.218 | 0.236 | 0.255 | 
8 | LC-2-ad |  | 0.357 | 0.379 | 0.311 | 0.932 | 0.827 | 0.907 | 0.8 | 0.807 | 0.831 | 0.851 | 0.835 | 0.888 | 0.894 | 0.79 | 0.724 | 0.824 | 0.817 | 0.756 | 
9 | NCI-H838 | 0.265 | 0.24 | 0.237 | 0.208 | 0.5 | 0.361 | 0.436 | 0.38 | 0.493 | 0.995 | 1.08 | 1.02 | 1.08 | 1.05 | 0.483 | 0.484 | 0.497 | 0.47 | 0.517 | 0.222
10 | NCI-H1944 | 0.236 | 0.225 | 0.23 | 0.19 | 0.389 | 0.404 | 0.42 | 0.424 | 0.392 | 1.25 | 1.08 | 1.28 | 1.16 | 1.1 | 0.413 | 0.39 | 0.443 | 0.443 | 0.417 | 0.191
11 | EPLC-272H | 0.255 | 0.13 | 0.169 | 0.292 | 0.3 | 0.286 | 0.248 | 0.293 | 0.283 |  | 1.08 | 1.28 | 1.16 | 1.19 | 0.373 | 0.361 | 0.387 | 0.397 | 0.399 | 0.202
12 | NCI-H1915 | 0.454 | 0.465 |  | 0.399 | 0.615 | 0.653 | 0.65 | 0.64 | 0.756 | 1.05 | 1.13 | 1.1 | 1.11 | 1.1 | 0.24 | 0.25 | 0.255 | 0.252 | 0.257 | 
13 | NCI-H2087 | 0.245 | 0.422 | 0.206 | 0.152 | 0.622 | 0.558 | 0.696 | 0.562 | 0.831 | 0.957 | 0.975 | 1.09 | 0.891 | 1.09 | 0.295 | 0.318 | 0.281 | 0.265 | 0.302 | 
14 | LCLC-97TM1 | 0.293 | 0.178 | 0.177 | 0.217 | 0.589 | 0.51 | 0.427 | 0.48 | 0.475 | 0.183 | 0.216 |  | 0.204 | 0.196 | 0.248 | 0.212 | 0.217 | 0.207 | 0.252 | 0.148
15 | NCI-H1734 | 0.28 | 0.259 | 0.238 | 0.245 | 0.586 | 0.57 | 0.656 | 0.623 | 0.644 | 0.856 | 0.913 | 0.952 | 1.01 | 0.836 | 0.401 | 0.533 | 0.595 | 0.472 | 0.447 | 0.262
16 | EKVX | 0.532 |  | 0.349 | 0.349 | 0.708 | 0.708 | 0.746 | 0.737 | 0.69 | 1.06 | 1.19 | 1.15 | 1.26 | 1.15 | 0.325 | 0.345 | 0.292 | 0.345 | 0.39 | 0.245
